Drawing on US11174268B2, “Benzenesulfonamide compouds and their use as therapeutic agents” (Xenon Pharmaceuticals Inc., priority 2016, dated 2021), this text covers IC50 for 24 molecules.

Structures can show the parent of a compound that is named as a salt.

One series has as its target NaV1.6 (Homo sapiens (Human), UniProt Q9UQD0). The series can be described thus: Sodium Influx Assay (Flux), NaV1.6.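 Further: Tetracycline-induced cells, compounds applied for one hour at room temperature with modulators holding channels open, IC50 from percent inhibition of sodium influx.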 The class given is cell-based. The settings on record: Trex HEK293 cells, ANG2 dye, inactivated state.
In a further series the target is NaV1.1 (Homo sapiens (Human), UniProt P35498). As to the kind of experiment: Sodium Influx Assay (Flux), NaV1.1.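 Further: channels co-expressed with human β1 subunit and held open by modulators, cells exposed to compounds for one hour at room temperature, IC50 from percent inhibition of influx.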 It is filed as cell-based. Particulars: Trex HEK293 cells, ANG2 dye, inactivated state.
The next series deals with NaV1.5 (Homo sapiens (Human), UniProt Q14524). The series can be described thus: Sodium Influx Assay (Flux), NaV1.5. The settings on record: read-out: Flux NaV1.5 IC50; Trex HEK293 cells, ANG2 dye, inactivated state.
NaV1.5, sequence (Q14524 other isoform, or with tags, fused parts or gaps): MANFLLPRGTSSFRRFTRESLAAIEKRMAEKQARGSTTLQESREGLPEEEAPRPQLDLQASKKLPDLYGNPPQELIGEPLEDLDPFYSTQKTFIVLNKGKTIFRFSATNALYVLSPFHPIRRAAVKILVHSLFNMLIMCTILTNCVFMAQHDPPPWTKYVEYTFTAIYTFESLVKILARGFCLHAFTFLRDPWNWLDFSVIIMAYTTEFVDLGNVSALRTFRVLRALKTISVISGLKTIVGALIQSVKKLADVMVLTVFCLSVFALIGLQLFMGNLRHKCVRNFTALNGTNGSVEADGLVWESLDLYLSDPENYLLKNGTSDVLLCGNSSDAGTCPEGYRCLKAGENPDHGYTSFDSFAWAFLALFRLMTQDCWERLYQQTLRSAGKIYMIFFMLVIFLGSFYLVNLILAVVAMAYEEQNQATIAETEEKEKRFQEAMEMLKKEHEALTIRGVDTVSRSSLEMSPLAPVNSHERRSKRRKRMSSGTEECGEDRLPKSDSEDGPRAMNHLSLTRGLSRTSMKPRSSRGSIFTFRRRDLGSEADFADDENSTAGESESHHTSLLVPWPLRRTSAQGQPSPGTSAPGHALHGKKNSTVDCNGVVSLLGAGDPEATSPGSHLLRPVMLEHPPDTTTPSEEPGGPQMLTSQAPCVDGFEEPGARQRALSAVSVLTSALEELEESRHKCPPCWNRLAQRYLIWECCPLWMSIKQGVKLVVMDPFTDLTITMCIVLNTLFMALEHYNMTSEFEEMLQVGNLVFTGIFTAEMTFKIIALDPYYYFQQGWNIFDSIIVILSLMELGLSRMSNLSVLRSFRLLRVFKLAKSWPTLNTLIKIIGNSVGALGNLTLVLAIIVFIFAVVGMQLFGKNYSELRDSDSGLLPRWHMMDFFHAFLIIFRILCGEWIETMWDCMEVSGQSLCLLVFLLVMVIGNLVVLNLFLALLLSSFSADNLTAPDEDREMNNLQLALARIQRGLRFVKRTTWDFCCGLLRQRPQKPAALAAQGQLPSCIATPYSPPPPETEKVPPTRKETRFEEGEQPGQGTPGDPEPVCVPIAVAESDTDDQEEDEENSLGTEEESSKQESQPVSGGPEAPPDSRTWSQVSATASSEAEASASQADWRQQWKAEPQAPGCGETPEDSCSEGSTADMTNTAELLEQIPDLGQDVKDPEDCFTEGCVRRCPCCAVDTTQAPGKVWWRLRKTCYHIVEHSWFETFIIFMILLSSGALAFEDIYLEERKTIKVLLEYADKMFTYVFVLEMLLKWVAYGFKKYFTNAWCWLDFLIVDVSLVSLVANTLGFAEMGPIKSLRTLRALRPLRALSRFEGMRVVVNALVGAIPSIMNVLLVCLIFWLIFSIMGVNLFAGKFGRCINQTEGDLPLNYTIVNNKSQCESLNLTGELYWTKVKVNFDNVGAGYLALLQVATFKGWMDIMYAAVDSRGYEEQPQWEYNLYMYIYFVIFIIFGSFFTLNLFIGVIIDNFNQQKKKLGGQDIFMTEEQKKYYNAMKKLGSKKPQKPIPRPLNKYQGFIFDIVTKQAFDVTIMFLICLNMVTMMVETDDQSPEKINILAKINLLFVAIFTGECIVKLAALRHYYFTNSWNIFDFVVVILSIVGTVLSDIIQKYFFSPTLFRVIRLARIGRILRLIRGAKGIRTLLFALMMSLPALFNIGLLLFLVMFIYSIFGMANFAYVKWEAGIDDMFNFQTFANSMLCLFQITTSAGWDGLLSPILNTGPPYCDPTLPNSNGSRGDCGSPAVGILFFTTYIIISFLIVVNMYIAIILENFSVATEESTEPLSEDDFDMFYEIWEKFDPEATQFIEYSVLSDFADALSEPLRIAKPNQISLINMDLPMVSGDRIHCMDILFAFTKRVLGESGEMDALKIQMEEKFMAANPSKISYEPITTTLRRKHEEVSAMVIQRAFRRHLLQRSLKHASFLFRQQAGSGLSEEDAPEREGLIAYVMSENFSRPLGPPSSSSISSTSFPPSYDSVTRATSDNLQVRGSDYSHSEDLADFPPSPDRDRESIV

Turning to `O=S(=O)(Nc1cscn1)c1cc(Cl)c(NCc2c(F)ccc(F)c2CN2CC3(CCOCC3)C2)cc1F` [Example 282, 4-((2-((7-oxa-2-azaspiro[3.5]nonan-2-yl)methyl)-3,6-difluorobenzyl)amino)-5-chloro-2-fluoro-N-(thiazol-4-yl)benzenesulfonamide 2,2,2-trifluoroacetate], the values for the IC50 against NaV1.6, at NaV1.1 and at NaV1.5 were 0.409 µM, 9.78 µM and 6.58 µM, respectively.

Regarding `CN(Cc1c(F)ccc(F)c1CN1CCC1)c1cc(F)c(S(=O)(=O)Nc2cscn2)c(F)c1` [Example 284, 4-((2-(azetidin-1-ylmethyl)-3,6-difluorobenzyl)(methyl)amino)-2,6-difluoro-N-(thiazol-4-yl)benzenesulfonamide 2,2,2-trifluoroacetate], the results for the IC50 at NaV1.6, against NaV1.1 and on NaV1.5 were 1.37 µM, 30 µM and 30 µM, respectively.

Regarding `Cc1cccc(CN2CCC2)c1CNc1cc(F)c(S(=O)(=O)Nc2cscn2)c(F)c1` [Example 285, 4-((2-(Azetidin-1-ylmethyl)-6-methylbenzyl)amino)-2,6-difluoro-N-(thiazol-4-yl)benzenesulfonamide formate], the IC50 (usually the concentration that gives 50% inhibition) on NaV1.6 was determined as 0.625 µM; on NaV1.1, 5.89 µM; at NaV1.5, 26.6 µM.

Consider `C[C@H](Nc1cc(F)c(S(=O)(=O)Nc2cscn2)cc1Cl)c1cc(F)c(F)cc1F` [Example 286, (S)-5-chloro-2-fluoro-N-(thiazol-4-yl)-4-((1-(2,4,5-trifluorophenyl)ethyl)amino)benzenesulfonamide], for which the IC50 against NaV1.6 is 3.38 µM; on NaV1.1, 6.84 µM; on NaV1.5, 8.78 µM.

Turning to `O=S(=O)(Nc1cscn1)c1c(F)cc(N[C@@H]2C[C@H](N3CCC3)c3ccccc32)cc1F` [Example 289, 4-(((1R,3S)-3-(azetidin-1-yl)-2,3-dihydro-1H-inden-1-yl)amino)-2,6-difluoro-N-(thiazol-4-yl)benzenesulfonamide], the IC50 at NaV1.6 came out at 0.556 µM; against NaV1.1, 4.27 µM; at NaV1.5, 30 µM.

On to `O=S(=O)(Nc1cscn1)c1cc(Cl)c(NCc2c(Cl)cccc2CN2CC3(CNC3)C2)cc1F` [Example 291, 4-((2-((2,6-diazaspiro[3.3]heptan-2-yl)methyl)-6-chlorobenzyl)amino)-5-chloro-2-fluoro-N-(thiazol-4-yl)benzenesulfonamide 2,2,2-trifluoroacetate], for which the figures for the IC50 on NaV1.6, against NaV1.1 and at NaV1.5 were 0.368 µM, 14 µM and 30 µM, respectively.

`CN1CC2(C1)CN(Cc1cccc(Cl)c1CNc1cc(F)c(S(=O)(=O)Nc3cscn3)cc1Cl)C2` [Example 292, 5-chloro-4-((2-chloro-6-((6-methyl-2,6-diazaspiro[3.3]heptan-2-yl)methyl)benzyl)amino)-2-fluoro-N-(thiazol-4-yl)benzenesulfonamide 2,2,2-trifluoroacetate]: the figures for the IC50 against NaV1.6, at NaV1.1 and on NaV1.5 were 0.624 µM, 2.72 µM and 8.4 µM, respectively.

For `O=S(=O)(Nc1ccon1)c1ccc(NCc2c(F)cccc2CN2CCCC2)c(F)c1F` [Example 294, 2,3-difluoro-4-((2-fluoro-6-(pyrrolidin-1-ylmethyl)benzyl)amino)-N-(isoxazol-3-yl)benzenesulfonamide 2,2,2-trifluoroacetate], the values for the IC50 at NaV1.6, against NaV1.1 and at NaV1.5 were 0.688 µM, 30 µM and 30 µM, respectively.

On to `O=S(=O)(Nc1ccc(F)cn1)c1c(F)cc(NCc2c(F)cccc2CN2CCC2)cc1F` [Example 296, 4-((2-(azetidin-1-ylmethyl)-6-fluorobenzyl)amino)-2,6-difluoro-N-(5-fluoropyridin-2-yl)benzenesulfonamide formate], for which the results for the IC50 against NaV1.6, against NaV1.1 and at NaV1.5 were 1.31 µM, 16.9 µM and 30 µM, respectively.

`O=S(=O)(Nc1cscn1)c1cc(Cl)c(NCc2c(F)ccc3cc[nH]c23)cc1F` [Example 298, 5-chloro-2-fluoro-4-(((6-fluoro-1H-indol-7-yl)methyl)amino)-N-(thiazol-4-yl)benzenesulfonamide]: the IC50 against NaV1.6 came to 0.785 µM; against NaV1.1, 7.19 µM; on NaV1.5, 11.3 µM.

Consider `C[C@@H](O)c1cccc(F)c1CNc1cc(F)c(S(=O)(=O)Nc2cscn2)c(F)c1` [Example 299, (R)-2,6-difluoro-4-((2-fluoro-6-(1-hydroxyethyl)benzyl)amino)-N-(thiazol-4-yl)benzenesulfonamide], for which the IC50 against NaV1.6 was determined as 3.61 µM; against NaV1.1, 0.684 µM; at NaV1.5, 21.6 µM.

As to `O=S(=O)(Nc1ccon1)c1cc(Cl)c(NCc2c(F)cccc2CN2CCC2)cc1F` [Example 301, 4-((2-(azetidin-1-ylmethyl)-6-fluorobenzyl)amino)-5-chloro-2-fluoro-N-(isoxazol-3-yl)benzenesulfonamide formate], the IC50 at NaV1.6 came out at 0.493 µM; against NaV1.1 it was 30 µM; at NaV1.5, 30 µM.

On to `O=S(=O)(Nc1cscn1)c1c(F)cc(NCc2c(F)cccc2CN2CCC2)cc1F` [Example 302, 4-((2-(azetidin-1-ylmethyl)-6-fluorobenzyl)amino)-2,6-difluoro-N-(thiazol-4-yl)benzenesulfonamide 2,2,2-trifluoroacetate], for which the IC50 against NaV1.6 was found to be 0.049 µM; on NaV1.1 it was 9.67 µM; on NaV1.5 it was 23.9 µM.

Regarding `O=S(=O)(Nc1cscn1)c1c(F)cc(NCc2c(F)cccc2CN2CCC2)c(Cl)c1F` [Example 303, 4-((2-(azetidin-1-ylmethyl)-6-fluorobenzyl)amino)-3-chloro-2,6-difluoro-N-(thiazol-4-yl)benzenesulfonamide 2,2,2-trifluoroacetate], the IC50 against NaV1.6 was determined as 0.007 µM; against NaV1.1, 5.73 µM; on NaV1.5, 24.5 µM.

Turning to `Cc1c(NCc2ccccc2CN2CCC2(C)C)cc(F)c(S(=O)(=O)Nc2cscn2)c1F` [Example 305, 4-((2-((2,2-dimethylazetidin-1-yl)methyl)benzyl)amino)-2,6-difluoro-3-methyl-N-(thiazol-4-yl)benzenesulfonamide 2,2,2-trifluoroacetate], the values for the half-inhibitory concentration (IC50) on NaV1.6, on NaV1.1 and at NaV1.5 were 0.057 µM, 14.2 µM and 30 µM, respectively.

For the molecule `Cc1c(NCc2c(F)cccc2CN2CCC2(C)C)ccc(S(=O)(=O)Nc2cscn2)c1F` [Example 306, 4-((2-((2,2-dimethylazetidin-1-yl)methyl)-6-fluorobenzyl)amino)-2-fluoro-3-methyl-N-(thiazol-4-yl)benzenesulfonamide], the IC50 against NaV1.6 amounted to 0.241 µM; against NaV1.1 it was 18.1 µM; at NaV1.5 it was 8.1 µM.

As for `O=S(=O)(Nc1cscn1)c1cc(F)c(NCc2c(F)cccc2CN2CCC2)cc1F` [Example 308, 4-((2-(azetidin-1-ylmethyl)-6-fluorobenzyl)amino)-2,5-difluoro-N-(thiazol-4-yl)benzenesulfonamide], the results for the IC50 on NaV1.6, against NaV1.1 and at NaV1.5 were 0.605 µM, 26 µM and 26.4 µM, respectively.

As for `O=S(=O)(Nc1cscn1)c1c(F)cc(NCc2c(Cl)ccc(F)c2CN2CCC2)cc1F` [Example 309, 4-((2-(azetidin-1-ylmethyl)-6-chloro-3-fluorobenzyl)amino)-2,6-difluoro-N-(thiazol-4-yl)benzenesulfonamide 2,2,2-trifluoroacetate], the figures for the IC50 on NaV1.6, at NaV1.1 and on NaV1.5 were 0.085 µM, 6.34 µM and 27.6 µM, respectively.

With `O=S(=O)(Nc1ccncn1)c1c(F)cc(NCc2ccccc2CN2CCC2)cc1F` [Example 311, 4-((2-(azetidin-1-ylmethyl)benzyl)amino)-2,6-difluoro-N-(pyrimidin-4-yl)benzenesulfonamide formate], the IC50 against NaV1.6 came out at 0.219 µM; against NaV1.1, 26.4 µM; at NaV1.5 it was 30 µM.

In the case of `Cc1cc(NCc2ccccc2CN2CCC2)c(F)c(F)c1S(=O)(=O)Nc1cscn1` [Example 312, 4-((2-(azetidin-1-ylmethyl)benzyl)amino)-2,3-difluoro-6-methyl-N-(thiazol-4-yl)benzenesulfonamide 2,2,2-trifluoroacetate], the IC50 against NaV1.6 amounted to 0.135 µM; on NaV1.1, 7.26 µM; at NaV1.5, 9.59 µM.

Take `Cc1c(NCc2c(Cl)ccc(F)c2CN2CCC2)cc(F)c(S(=O)(=O)Nc2cscn2)c1F` [Example 313, 4-((2-(azetidin-1-ylmethyl)-6-chloro-3-fluorobenzyl)amino)-2,6-difluoro-3-methyl-N-(thiazol-4-yl)benzenesulfonamide 2,2,2-trifluoroacetate]: the IC50 on NaV1.6 was found to be 0.014 µM; against NaV1.1 it was 3.75 µM; at NaV1.5, 14.3 µM.

Regarding `Cc1cc(NCc2c(F)cccc2CN2CC(C)(C)C2)c(F)c(F)c1S(=O)(=O)Nc1cscn1` [Example 314, 4-((2-((3,3-dimethylazetidin-1-yl)methyl)-6-fluorobenzyl)amino)-2,3-difluoro-6-methyl-N-(thiazol-4-yl)benzenesulfonamide 2,2,2-trifluoroacetate], the IC50 was 0.032 µM on NaV1.6, 30 µM on NaV1.1 and 30 µM at NaV1.5.

For the molecule `Cc1c(NCc2c(F)cccc2CN2CCC2)ccc(S(=O)(=O)Nc2ccon2)c1F` [Example 315, 4-((2-(azetidin-1-ylmethyl)-6-fluorobenzyl)amino)-2-fluoro-N-(isoxazol-3-yl)-3-methylbenzenesulfonamide 2,2,2-trifluoroacetate], the IC50 at NaV1.6 amounted to 0.27 µM; against NaV1.1 it was 30 µM; on NaV1.5, 30 µM.

In the case of `O=S(=O)(Nc1cnsc1)c1c(F)cc(NCc2c(F)cccc2CN2CCC2)cc1F` [Example 318, 4-((2-(azetidin-1-ylmethyl)-6-fluorobenzyl)amino)-2,6-difluoro-N-(isothiazol-4-yl)benzenesulfonamide], the figures for the IC50 on NaV1.6, against NaV1.1 and on NaV1.5 were 6.03 µM, 20.4 µM and 17.3 µM, respectively.
